We go through five compounds from patent US5990317A, “2-(1H-4(5)-imidazoyl) cyclopropyl compounds” (Gliatech, Inc., priority 1998, dated 1999).

Like-named read-outs stand apart in the source and are kept apart here.

One assay has as its target Histamine H3 receptor. The assay is described as follows: In Vitro Histamine H3 Receptor Binding Analysis ([3H]-N-alpha-methylhistamine displacement, rat cortical membranes). Conditions: [3H]-N-alpha-methylhistamine 0.8-1.2 nM, pH 7.4, 40 min, 25° C, read-out: Histamine H3 Receptor Binding Affinities, H3 Receptor Ki. As for the experimental part: Histamine H3 receptor affinity was determined in rat cortical membranes using the H3 selective agonist ligand, [^3 H]-N^α -methylhistamine (78.9 Ci/mole, DuPont NEN Research Products, Boston, Mass.) according to the method of West et al., (1990) Mol. Pharmacol. 38: 610-613 with modifications. Briefly, animals were sacrificed by decapitation and the cerebral cortex was rapidly removed. Rat cortices were mechanically homogenized with an Omni 1000 motor driven homogenizer in 10 volumes (wt/vol) of Krebs-Ringers Hepes buffer (pH 7.4) containing the following protease inhibitors: EDTA (10 mM), PMSF (0.1 mM), chymostatin (0.2 mg/50 mL) and leupeptin (0.2 mg/50 mL). The homogenate was centrifuged in a Sorvall at ~40,000×g for 30 min. The pellet was resuspended by mechanical homogenization in 25 mL water and lysed on ice for 30 min. The homogenate was recentrifuged and the membrane lysis was repeated. The membranes were recentrifuged and the final pellet was resuspended in 14 volumes of water to give approximately 200 μg protein/100 μl final concentration. The suspension was stored at -80° prior to use. Protein concentrations were determined by Coomassie Plus Protein Assay (Pierce, Rockford, Ill.).
Nonspecific binding (NSB) was accounted for by the inclusion of thioperamide (10 μM). Samples were incubated for 40 minutes at 25° C. The samples were filtered through glass fiber strips, pre-washed with 0.3% polyethyleneimine, using a Brandell cell harvester. The filters were rapidly washed three times with 4 ml of 25 mm Tris buffer containing 145 mM NaCl (pH 7.4, 4° C.). Filters were transferred to polyethylene mini-vials and counted in 3.5 ml of scintillation fluid (Ecolume, ICN Biomedicals, Inc.). […] Saturation and competition experiments were analyzed with the ReceptorFit saturation and competition curve fitting programs (Lundon Software, Ind., Cleveland, Ohio).

A further assay has as its system arousal EEG pattern. Conditions: intraventricular, rabbits; cited from earlier work.
The subject of assay [1] is spontaneous locomotor activity, grooming and exploratory behavior. Conditions: intraventricular, saline and pentobarbital-treated rats; cited from earlier work.
The test system of assay [2] is H3 receptor. The following applies: cat; cited from earlier work.
The test system of assay [3] is H3 receptor. The following applies: rats; cited from earlier work.
For the next assay, the system named is histamine. The following applies: in vivo; cited from earlier work.
In assay [4] the test system is electrically-induced convulsions. Conditions: cited from earlier work.

For the compound `C(=CC1CC1c1c[nH]cn1)CCC1CCCCC1` [Example 24, (1S,2S)-trans-4-(2-(4-cyclohexylbut-cis-1-enyl)cyclopropyl)imidazole], on Histamine H3 receptor, the inhibition constant (Ki) is 108 ± 3.9 nM.
On the same count and under the same terms, for `C(=CC1CC1c1c[nH]cn1)CCC1CCCCC1` [Example 25, (1S,2S)-trans-4-(2-(4-cyclohexylbut-trans-1-enyl)cyclopropyl)imidazole] the value was 56 ± 9 nM; for `O=C(NCCCC1CCCCC1)C1CC1c1c[nH]cn1` (centres unmarked) [Example 30], 42 ± 7 nM.
For the compound `NCCc1c[nH]cn1` [histamine], in the assay on arousal EEG pattern, the “arousal EEG pattern” value is on record as “induces the appearances of an arousal EEG pattern”. The “spontaneous locomotor activity, grooming, and exploratory behavior” value in assay [1] was “increased spontaneous locomotor activity, grooming and exploratory behavior”.
For the compound `S=C(NC1CCCCC1)N1CCC(c2cnc[nH]2)CC1` [thioperamide], the wakefulness entry in the assay on H3 receptor [2] is given as “enhanced wakefulness in a dose-dependent fashion”. Moreover, in the assay on H3 receptor [3], the “slow wave and REM sleep” value is “decrease slow wave and REM sleep”; the wakefulness entry was “increase wakefulness”. Also, in the assay with histamine, the “synthesis and release of histamine” value is “increase in synthesis and release of histamine”. The “durations of every convulsive phase” value in assay [4] (electrically-induced convulsions) is “significantly and dose-dependently decrease the durations of every convulsive phase”. Further, the electroconvulsive threshold entry in assay [4] (in vivo) is recorded as “increase the electroconvulsive threshold”.

What is called Ki is a measure of affinity in units of concentration, obtained from inhibition or displacement.
